# Test results as given in ChEMBL document CHEMBL1201862, “PubChem BioAssay data set” (2004).
# Active and inactive are the calls of the source. Unless noted, the rule behind the calls is not given here.
# What was measured:
# [1] = target: HSP90 (Plasmodium falciparum 3D7, UniProt Q8IL32); format: functional, organism-based
# [2] = tested on: Candida albicans; assay: resistant Candida growth with fluconazole co-treatment – CaCi-8 strain, Alamar Blue, dry powder, set 3, dose response (AID 488905); format: functional, organism-based
# [3] = tested on: Candida albicans; assay: Candida growth inhibition combined with fluconazole – CaCi-2 strain, Alamar Blue, dry powder, set 3, dose response (AID 488907); format: functional, organism-based
# [4] = target: T1, CAAX prenyl protease 2 (Saccharomyces cerevisiae S288c, UniProt Q03530); format: biochemical
# T1 sequence (Q03530 whole entry): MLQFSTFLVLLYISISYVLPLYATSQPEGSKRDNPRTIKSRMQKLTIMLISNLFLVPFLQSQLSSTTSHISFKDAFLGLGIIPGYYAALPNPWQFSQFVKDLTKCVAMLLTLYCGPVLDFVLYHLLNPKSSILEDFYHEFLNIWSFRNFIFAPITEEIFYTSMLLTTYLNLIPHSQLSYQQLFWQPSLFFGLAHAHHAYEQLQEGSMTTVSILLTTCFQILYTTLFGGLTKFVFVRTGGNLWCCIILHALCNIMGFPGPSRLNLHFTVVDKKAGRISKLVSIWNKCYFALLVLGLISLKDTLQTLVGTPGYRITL
# [5] = target: T1, CAAX prenyl protease 2; assay: inhibition of Rce1p peptide cleavage – biochemical, plate reader, dry powder retest, dose response (AID 588851)
# HSP90, sequence (Q8IL32 whole entry): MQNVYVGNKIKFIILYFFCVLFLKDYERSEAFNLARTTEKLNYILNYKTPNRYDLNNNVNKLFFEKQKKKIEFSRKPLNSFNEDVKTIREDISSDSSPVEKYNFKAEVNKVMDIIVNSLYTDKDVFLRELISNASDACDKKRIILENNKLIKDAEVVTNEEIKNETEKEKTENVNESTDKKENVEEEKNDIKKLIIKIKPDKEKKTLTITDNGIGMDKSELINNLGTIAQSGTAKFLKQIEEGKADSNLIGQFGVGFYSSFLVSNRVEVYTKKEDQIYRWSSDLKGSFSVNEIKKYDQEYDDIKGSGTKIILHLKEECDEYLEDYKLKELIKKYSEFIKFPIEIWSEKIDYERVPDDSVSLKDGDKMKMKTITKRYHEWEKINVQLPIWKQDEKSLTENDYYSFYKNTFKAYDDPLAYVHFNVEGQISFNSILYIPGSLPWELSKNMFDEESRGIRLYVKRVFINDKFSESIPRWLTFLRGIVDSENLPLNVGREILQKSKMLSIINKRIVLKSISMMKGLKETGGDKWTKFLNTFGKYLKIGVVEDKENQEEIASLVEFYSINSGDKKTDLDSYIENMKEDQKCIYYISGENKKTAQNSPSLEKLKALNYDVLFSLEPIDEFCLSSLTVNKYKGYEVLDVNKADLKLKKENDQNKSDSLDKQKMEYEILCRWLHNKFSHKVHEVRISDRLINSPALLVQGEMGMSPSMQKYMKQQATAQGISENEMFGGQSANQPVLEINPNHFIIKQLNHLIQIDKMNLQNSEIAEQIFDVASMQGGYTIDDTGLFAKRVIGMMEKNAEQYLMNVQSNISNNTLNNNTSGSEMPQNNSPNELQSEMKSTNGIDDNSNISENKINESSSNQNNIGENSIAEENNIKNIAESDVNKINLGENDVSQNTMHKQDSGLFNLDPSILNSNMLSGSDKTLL
compound,measurement,setting,value
CCCC1CCC(c2ccc(C(=N)NO)cc2)CC1 (stereo not given),AC50,[1],28.6 µM (active)
COc1ccc(C(=O)N2CCN(c3ccccn3)CC2)cc1,AC50,[2],15.4 µM (active)
same,AC50,[3],0.484 µM (active)
Cc1cccc(-c2nnc(SCc3ccc(C#N)cc3)n2Cc2ccco2)c1,AC50,[4],0.963 µM (active)
same,AC50,[5],16.8 µM (active)
